# Reference: patent US12195427B2, “MASP-2 inhibitors and methods of use” (priority 2018, dated 2025)
# pKi: −log10 of the molar value.
# Key:
# [1] = target: MASP-2 (CCP1-CCP2-SP) (Homo sapiens (Human), UniProt O00187); test: Enzymatic Assay for MASP-2 (fluorogenic substrate); type: biochemical
# [2] = target: human α-thrombin (Homo sapiens (Human), UniProt P00734); test: Enzymatic Assay for Thrombin (Boc-VPR-AMC); type: biochemical
# [3] = target: MASP-2 CCP2-SP (Homo sapiens (Human), UniProt O00187); test: MASP-2 co-crystallization, X-ray crystallography and structure analysis (H-bonds, van der Waals contacts); set-up: van der Waals contact distance, MASP-2 HIS 483 atom CD2 / van der Waals contact distance, MASP-2 HIS 483 atom NE2 / van der Waals contact distance, SER 654 C to compound atom / van der Waals contact distance, SER 654 O to compound atom / van der Waals contact distance, TRP 655 C to compound atom / van der Waals contact distance, MASP-2 GLY 528 atom CA / van der Waals contact distance TRP 655 atom CZ3 / van der Waals contact distance TRP 655 atom N / van der Waals contact distance TRP 655 atom CE3 / van der Waals contact distance GLY 656 atom C / van der Waals contact distance GLY 656 atom CA / van der Waals contact distance GLY 656 atom O / van der Waals contact distance, MASP-2 TYR 607 atom CD1 / van der Waals contact distance, MASP-2 PRO 606 atom O / d(C3,CA1) / d(CA1,N1)2 / d(H4,O1) / d(H4,O2) / d(O1,O2) / d(CA1,O2) / d(CA6,O1) / d(CA6,O2) / d(CA1,C5) / d(O2,H3) / d(N2,C2) / d(CA5,N2) / d(N2,C4) / d(N2,C6) / d(N2,CA3) / d(N2,O3) / d(O4,H2): unit not given beside the values; details: for H-bond distance to MASP-2 GLY 656 atom O: GLY 656 O; for H-bond distance to MASP-2 SER 628 atom O: SER 628 O; for H-bond distance to MASP-2 SER 654 atom O: SER 654 O; for H-bond distance to MASP-2 SER 657 atom O: SER 657 O; for van der Waals contact distance GLY 656 atom C: MASP-2 GLY 656 C; for van der Waals contact distance SER 657 atom C: MASP-2 SER 657 C, columns c12-c13 (inferred);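 as to Ligand-pharmacophore element distance, pharmacophore element C2: distance from averaged pharmacophore element to bound ligand; missing value means element absent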;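 as to Ligand-pharmacophore element distance, pharmacophore element C3: distance from averaged pharmacophore element to bound ligand; missing value means element absent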;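 as to Ligand-pharmacophore element distance, pharmacophore element C4: distance from averaged pharmacophore element to bound ligand; missing value means element absent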;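 as to Ligand-pharmacophore element distance, pharmacophore element C5: distance from averaged pharmacophore element to bound ligand; missing value means element absent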
# Sequence of MASP-2 CCP2-SP (O00187 445-686): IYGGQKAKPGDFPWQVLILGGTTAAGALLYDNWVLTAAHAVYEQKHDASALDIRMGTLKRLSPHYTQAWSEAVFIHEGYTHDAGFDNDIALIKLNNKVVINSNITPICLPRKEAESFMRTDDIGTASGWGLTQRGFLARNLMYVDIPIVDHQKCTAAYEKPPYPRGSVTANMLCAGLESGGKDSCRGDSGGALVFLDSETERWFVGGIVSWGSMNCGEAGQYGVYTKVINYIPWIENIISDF
# Sequence of MASP-2 CCP2-SP (O00187 364-432 partner): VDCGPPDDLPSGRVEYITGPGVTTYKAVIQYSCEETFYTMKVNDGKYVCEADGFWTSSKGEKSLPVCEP
# Method in brief: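 Contacts and H-bonds come from partially refined soaked-crystal structures of recombinant human CCP2-SP made in E. coli, solved by molecular replacement against 1Q3X fragments. Where several ligand poses appeared, only one was analysed; listed nonbonded contacts may include possible H-bond pairings.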
# [4] = Table A2-9 second part, ARG 630, AA atoms N, NE, NH1
# [5] = Table A5-1 pharmacophore: distance between elements, S2/S1 region
# [6] = Table A5-2 pharmacophore distance, S3/S4 region
# [7] = Table A7-1, between pharmacophore elements of the bound compound
# [8] = Table A8-6, nearest protein atom in cell to the left
# Sequence of MASP-2 (CCP1-CCP2-SP) (O00187 445-686): as the sequence (O00187 445-686) above
structure (smiles),measurement,setting,value
C[C@H](NC(=O)[C@H](N)CCc1cccc(Cl)c1)C(=O)NCc1ccc(C(=N)N)cc1 [compound 1081],pKi,[1],> 6.30
same,pKi,[2],> 6.30
same,H-bond distance to MASP-2 GLY 656 atom O,[3]; Table A1 (H-Bonds),2.92
same,H-bond distance to MASP-2 SER 628 atom O,[3]; Table A1 (H-Bonds),2.86
same,H-bond distance to MASP-2 SER 654 atom O,[3]; Table A1 (H-Bonds),2.81
same,H-bond distance to MASP-2 SER 657 atom O,[3]; Table A1 (H-Bonds),2.69
same,"van der Waals contact distance, MASP-2 HIS 483 atom CD2",[3]; Table A2-1,3.74
same,"van der Waals contact distance, MASP-2 PHE 529 atom CD1",[3]; Table A2-3,3.38
same,"van der Waals contact distance, MASP-2 amino acid atom to compound atom",[3]; Table A2-7 continued: CYS 629 (CA),3.8
same,"van der Waals contact distance, MASP-2 amino acid atom to compound atom","[3]; Table A2-9, ARG 630, AA atoms CG, CZ",3.76
same,"van der Waals contact distance, MASP-2 amino acid atom to compound atom",[3]; [4],3.81
same,"van der Waals contact distance, VAL 653 CG1 to compound atom",[3]; Table A2-11,3.84
same,van der Waals contact distance GLY 656 atom C,[3]; Table A2-13,3.27
same,van der Waals contact distance TRP 655 atom N,"[3]; Table A2-13, MASP-2 TRP 655 N",3.83
same,van der Waals contact distance TRP 655 atom O,"[3]; Table A2-13, MASP-2 TRP 655 O",3.8
same,van der Waals contact distance GLY 656 atom O,"[3]; Table A2-14, MASP-2 GLY 656 O",3.81
same,van der Waals contact distance SER 657 atom C,[3]; Table A2-14,3.62
same,"Ligand-pharmacophore element distance, pharmacophore element C2","[3]; Table A4-1, element C2",0
same,"Ligand-pharmacophore element distance, pharmacophore element C3","[3]; Table A4-1, element C3",0
same,"Ligand-pharmacophore element distance, pharmacophore element C4","[3]; Table A4-1, element C4",1.99
same,"Ligand-pharmacophore element distance, pharmacophore element C5","[3]; Table A4-1, element C5",0
same,"Ligand-pharmacophore element distance, pharmacophore element C6","[3]; Table A4-1, element C6",0
same,"Ligand-pharmacophore element distance, pharmacophore element C7","[3]; Table A4-1, element C7",0
same,"Ligand-pharmacophore element distance, pharmacophore element CA1","[3]; Table A4-1, element CA1",0.48
same,"Ligand-pharmacophore element distance, pharmacophore element CA2","[3]; Table A4-1, element CA2",0.76
same,"Ligand-pharmacophore element distance, pharmacophore element CA3","[3]; Table A4-1, element CA3",0
same,"Ligand-pharmacophore element distance, pharmacophore element CA4","[3]; Table A4-1, element CA4",0
same,"Ligand-pharmacophore element distance, pharmacophore element CA5","[3]; Table A4-1, element CA5",0
same,"Ligand-pharmacophore element distance, pharmacophore element CA6","[3]; Table A4-1, element CA6",0
same,"d(CA1,N1)",[3]; [5],3.62
same,"d(CA1,O1)",[3]; [5],4.57
same,"d(CA1,O2)",[3]; [5],4.27
same,"d(H4,O1)",[3]; [5],5.10
same,"d(H4,O2)",[3]; [5],4.46
same,"d(O1,O2)",[3]; [5],3.45
same,"d(N2,C4)",[3]; [6],7.56
same,"d(N2,C4)4",[3]; [6],7.56
same,"d(N2,CA2)",[3]; [6],6.05
same,"d(O2,H3)",[3]; [6],5.78
same,"d(O2,N2)",[3]; [6],2.76
same,"a(CA1, O1, O2)",[3]; Table A6-1 pharmacophore angle,108.25
same,"a(O1, O2, H4)",[3]; Table A6-1 pharmacophore angle,138.44
same,"A(N1, CA1, O1) a)","[3]; Table A6-1 pharmacophore angle, all compounds with protonatable center N1 except Methyl-amino-pyridine",163.55
same,"a(O1, O2, H3)",[3]; Table A6-2 pharmacophore angle,153.00
same,"a(O1, O2, N2)",[3]; Table A6-2 pharmacophore angle,139.53
same,"a(O2, N2, C4)",[3]; Table A6-2 pharmacophore angle,161.57
same,"a(O2, N2, C4) 2",[3]; Table A6-2 pharmacophore angle,119.80
same,"a(O2, N2, CA2)",[3]; Table A6-2 pharmacophore angle,153.98
same,"Pharmacophore torsion angle a(H4, O1, O2, H3)",[3]; [7],36.36
same,"Pharmacophore torsion angle a(H4, O1, O2, N2)",[3]; [7],121.47
same,"Pharmacophore torsion angle a(N1, CA1, O2, H4)",[3]; [7],−125.05
same,"Pharmacophore torsion angle a(O1, H4, O2, CA1)",[3]; [7],−62.03
same,"Pharmacophore torsion angle a(O1, O2, N2, CA2)","[3]; Table A7-2, between pharmacophore elements of the bound compound",142.86
same,Pharmacophore protein distance to MET_658 (first MET_658 column),"[3]; Table A8-6, 6th residue column, nearest protein atom in cell to the left",3.11
same,Pharmacophore protein distance to MET_658 (second MET_658 column),"[3]; Table A8-6, 9th residue column, nearest protein atom in cell to the left",3.70
same,Pharmacophore protein distance to GLY_528,[3]; [8],3.22
same,Pharmacophore protein distance to PHE_529,[3]; [8],3.23
same,Pharmacophore protein distance to PRO_608,[3]; [8],4.72
same,Pharmacophore protein distance to SER_611,[3]; [8],2.66
same,Pharmacophore protein distance to TRP_655,"[3]; Table A8-6, pharmacophore elements C6, CA3, O3, H1, nearest protein atom in cell to the left",3.69
C[C@H](NC(=O)[C@H]1Cc2c([nH]c3ccccc23)CN1)C(=O)NCc1ccc(C(=N)N)cc1 [compound 1097],pKi,[1],> 6.30
same,pKi,[2],> 6.30
same,H-bond distance to MASP-2 ASP 627 atom OD2,"[3]; Table A1 (H-Bonds), ASP 627 OD2",2.74
same,H-bond distance to MASP-2 GLY 656 atom N,"[3]; Table A1 (H-Bonds), GLY 656 N",3.12
same,H-bond distance to MASP-2 GLY 656 atom O,[3]; Table A1 (H-Bonds),2.98
same,H-bond distance to MASP-2 SER 628 atom O,[3]; Table A1 (H-Bonds),3.03
same,H-bond distance to MASP-2 SER 654 atom O,[3]; Table A1 (H-Bonds),2.81
same,H-bond distance to MASP-2 SER 657 atom O,[3]; Table A1 (H-Bonds),2.74
same,"van der Waals contact distance, MASP-2 HIS 483 atom CD2",[3]; Table A2-1,3.63
same,"van der Waals contact distance, MASP-2 HIS 483 atom NE2",[3]; Table A2-1,3.53
same,"van der Waals contact distance, MASP-2 PRO 606 atom C",[3]; Table A2-4,3.74
same,"van der Waals contact distance, MASP-2 PRO 606 atom CB",[3]; Table A2-4,3.84
same,"van der Waals contact distance, MASP-2 PRO 606 atom CG",[3]; Table A2-4,3.82
same,"van der Waals contact distance, MASP-2 PRO 606 atom O",[3]; Table A2-4,3.33
same,"van der Waals contact distance, MASP-2 TYR 607 atom CA",[3]; Table A2-4,3.79
same,"van der Waals contact distance, MASP-2 amino acid atom to compound atom",[3]; [4],3.71
same,"van der Waals contact distance, SER 654 C to compound atom",[3]; Table A2-11,3.73
same,van der Waals contact distance GLY 656 atom C,[3]; Table A2-13,3.46
same,van der Waals contact distance SER 657 atom C,[3]; Table A2-14,3.52
